Test [1] relates to HL-60. The test can be described thus: Compound was tested to induce differentiation of human promyeloid leukemia cells (HL-60). Type of test: functional.
Test [2] addresses T1, Vitamin D3 receptor (Homo sapiens) (UniProt P11473).
T1 sequence (whole entry): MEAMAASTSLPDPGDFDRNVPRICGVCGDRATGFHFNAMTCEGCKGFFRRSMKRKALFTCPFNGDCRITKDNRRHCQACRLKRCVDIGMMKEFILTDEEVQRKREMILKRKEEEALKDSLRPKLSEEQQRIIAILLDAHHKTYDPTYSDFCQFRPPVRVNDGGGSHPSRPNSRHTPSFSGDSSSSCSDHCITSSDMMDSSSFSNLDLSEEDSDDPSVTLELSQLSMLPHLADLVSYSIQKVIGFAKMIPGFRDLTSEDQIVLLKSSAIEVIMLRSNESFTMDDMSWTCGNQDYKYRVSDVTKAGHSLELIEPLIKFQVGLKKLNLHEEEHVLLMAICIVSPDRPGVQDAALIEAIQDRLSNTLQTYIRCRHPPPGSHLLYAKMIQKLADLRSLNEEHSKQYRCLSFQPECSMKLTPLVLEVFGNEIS
Briefly: Compound was tested to assess the relative affinity for the intestinal mucosal vitaminD receptor.

Test [3] concerns HL-60. The test can be described thus: Ability to induce differentiation of human promyeloid leukemia cells (HL-60). Type of test: functional.

Each structure is given as a SMILES string.

Compound `C=C1/C(=C\C=C2/CCC[C@]3(C)[C@@H]([C@H](C)COC(=O)C(C)(C)O)CC[C@@H]23)C[C@@H](O)C[C@@H]1O` showed a Relative activity in test [1] of 6. The compound also came in with a Relative affinity in test [2] of 26.

`C=C1/C(=C\C=C2/CCC[C@]3(C)[C@@H]([C@H](C)CSCC(C)(C)O)CC[C@@H]23)C[C@@H](O)C[C@@H]1O` registered a Relative activity in test [1] of 29. In addition, the Relative affinity in test [2] was found to be 13.

Take `C=C1/C(=C\C=C2/CCC[C@]3(C)[C@@H]([C@H](C)COCC(C)(C)O)CC[C@@H]23)C[C@@H](O)C[C@@H]1O`: in test [3], the Relative activity is recorded as 9. Also, the Relative affinity in test [2] turned out to be 2.

These data come from ChEMBL document CHEMBL1151498, “Synthesis and biological evaluation of 23-oxa-, 23-thia- and 23-oxa-24-oxo-1,25-dihydroxyvitamin D3” (1993).
